Measurements reported in patent publication US11564928B1, “Cannabinoid receptor type 2 (CB2) modulators and uses thereof” (Teon Therapeutics, Inc., priority 2020, dated 2023).
Read-outs that look alike come from different tables or passages of the source.

Tests used:
[1] = target: human CB2 receptor (Homo sapiens (Human), UniProt P34972); assay: CB2 receptor binding assay ([3H]CP-55,940 displacement, HEK-293 membranes)
Procedure: The compounds were evaluated in CB1R and CB2R binding assays using membranes from HEK-293 cells transfected with cDNAs encoding the human recombinant CB1R (Bmax=[…] protein) and human recombinant CB2R (Bmax=[…] protein) (Perkin-Elmer). […] Compounds were tested following the procedure described by the cell membrane manufacturer. […] CB2R binding assays were carried out with two different buffers: incubation buffer (Tris-HCl, 50 mM; MgCl2, 5 mM; CaCl2 1 mM; BSA, 0.2% at pH 7.4) and washing buffer (Tris-HCl, 50 mM; NaCl 500 mM; BSA, 0.1% at pH 7.4). […] Assays were performed in duplicate and incubated for […] at 37° C. […] Data are analyzed and IC50 is calculated using GraphPad Prism 5 and the model “log(inhibitor) vs. response—Variable slope”. The binding affinity of the compounds is Determined by Using the Cheng and Prusoff Equation Ki=IC50/(1+[radioligand]/Kd).

[2] = target: human recombinant CB1R (Homo sapiens (Human), UniProt P21554); assay: CB1 receptor binding assay ([3H]CP-55,940 displacement, HEK-293 membranes)
Chain of human recombinant CB1R (P21554 whole entry): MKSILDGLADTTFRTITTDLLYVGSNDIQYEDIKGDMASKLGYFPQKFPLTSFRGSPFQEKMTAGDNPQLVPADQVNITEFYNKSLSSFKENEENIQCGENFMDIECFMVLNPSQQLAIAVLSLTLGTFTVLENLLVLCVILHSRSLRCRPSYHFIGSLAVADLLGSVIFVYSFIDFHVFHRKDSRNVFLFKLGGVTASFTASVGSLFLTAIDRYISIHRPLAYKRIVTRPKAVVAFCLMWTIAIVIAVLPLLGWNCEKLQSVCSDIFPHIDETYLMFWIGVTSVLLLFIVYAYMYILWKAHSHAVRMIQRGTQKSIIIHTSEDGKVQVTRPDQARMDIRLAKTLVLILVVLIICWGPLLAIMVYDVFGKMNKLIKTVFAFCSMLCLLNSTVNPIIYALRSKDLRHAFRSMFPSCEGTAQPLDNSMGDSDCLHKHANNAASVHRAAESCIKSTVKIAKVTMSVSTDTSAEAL
Procedure: The compounds were evaluated in CB1R and CB2R binding assays using membranes from HEK-293 cells transfected with cDNAs encoding the human recombinant CB1R (Bmax=[…] protein) and human recombinant CB2R (Bmax=[…] protein) (Perkin-Elmer). […]. Compounds were tested following the procedure described by the cell membrane manufacturer. […] CB2R binding assays were carried out with two different buffers: incubation buffer (Tris-HCl, 50 mM; MgCl2, 5 mM; CaCl2 1 mM; BSA, 0.2% at pH 7.4) and washing buffer (Tris-HCl, 50 mM; NaCl 500 mM; BSA, 0.1% at pH 7.4). […] Assays were performed in duplicate and incubated for […] at 37° C. After the incubation, the assay mixture is filtered through 96 GF/C filter plates (Perkin Elmer #6005174) using Perkin Elmer Filtermate Harvester, and then washed four times with ice-cold washing buffer. The filters are dried for 1 hour at 50° C. and [^3H] trapped on filter counted for radioactivity in Perkin Elmer Microscint 20 cocktail (#6013329) using Perkin Elmer MicroBeta2 Reader. […] Data are analyzed and IC50 is calculated using GraphPad Prism 5 and the model “log(inhibitor) vs. response—Variable slope”. The binding affinity of the compounds is Determined by Using the Cheng and Prusoff Equation Ki=IC50/(1+[radioligand]/Kd).

[3] = membranes of HEK-293 cells with human recombinant CB2R, [3H]CP-55,940, read-out: CB2 IC50
[4] = membranes of HEK-293 cells with human recombinant CB1R, [3H]CP-55,940, read-out: CB1 IC50
[5] = membranes of HEK-293 cells with human recombinant CB2R, [3H]CP-55,940, class symbols, read-out: CB2 IC50
[6] = membranes of HEK-293 cells with human recombinant CB1R, [3H]CP-55,940, class symbols, read-out: CB1 IC50

Chain of human CB2 receptor (P34972 whole entry): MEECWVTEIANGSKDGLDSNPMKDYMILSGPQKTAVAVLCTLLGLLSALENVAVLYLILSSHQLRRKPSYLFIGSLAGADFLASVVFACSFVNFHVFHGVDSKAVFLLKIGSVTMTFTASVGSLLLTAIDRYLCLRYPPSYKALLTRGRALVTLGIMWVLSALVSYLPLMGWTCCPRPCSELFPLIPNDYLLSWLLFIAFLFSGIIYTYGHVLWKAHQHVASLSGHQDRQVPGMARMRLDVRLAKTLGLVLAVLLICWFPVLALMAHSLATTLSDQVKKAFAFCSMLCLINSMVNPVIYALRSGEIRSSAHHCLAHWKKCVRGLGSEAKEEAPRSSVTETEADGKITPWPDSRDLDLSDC

Question: With C[C@H]1CC[C@H](NC(=O)c2c(O)c3cccnc3n(Cc3ccc(F)cc3)c2=O)CC1 [Compound 144, 1-(4-fluorobenzyl)-4-hydroxy-N-((1r, 4r)-4-methylcyclohexyl)-2-oxo-1,2-dihydro-1,8-naphthyridine-3-carboxamide] as the compound, how does the IC50 [1, 3] read?
Answer: 1500 nM

Question: And the IC50 [2, 4]?
Answer: > 10000 nM

Question: For CC(NC(=O)c1cc2cc(Br)cnc2n(Cc2ncccn2)c1=O)c1ccc(F)cc1 (stereo not shown) [Compound 64, 6-bromo-N-(1-(4-fluorophenyl)ethyl)-2-oxo-1-(pyrimidin-2-ylmethyl)-1,2-dihydro-1,8-naphthyridine-3-carboxamide], which IC50 [1, 5] is on record?
Answer: > 1000 nM

Question: And the IC50 [2, 6]?
Answer: > 1000 nM

Question: How did the IC50 [1, 3] turn out when C[C@@H](NC(=O)c1cc2cc(Br)cnc2n(Cc2ccc(F)cc2)c1=O)c1ccc(C#N)cc1 [Compound 91, (R)-6-bromo-N-(1-(4-cyanophenyl)ethyl)-1-(4-fluorobenzyl)-2-oxo-1,2-dihydro-1,8-naphthyridine-3-carboxamide] was run?
Answer: 7 nM

Question: And the IC50 [2, 4]?
Answer: > 10000 nM

Question: Which IC50 [1] does the source give for O=C(NC12CC(C1)C2)c1c(O)c2cc(-c3ccc(F)cc3)cnc2n(CCN2CCCCC2)c1=O [Compound 128, N-(bicyclo[1.1.1]pentan-1-yl)-6-(4-fluorophenyl)-4-hydroxy-2-oxo-1-(2-(piperidin-1-yl)ethyl)-1,2-dihydro-1,8-naphthyridine-3-carboxamide] here?
Answer: 100 to 999 nM

Question: And the IC50 [2, 6]?
Answer: > 1000 nM

Question: How did the IC50 [1] turn out when CC12CC(NC(=O)c3c(O)c4cc(-c5ccc(F)cc5)cnc4n(CCN4CCOCC4)c3=O)(C1)C2 [Compound 110, 6-(4-fluorophenyl)-4-hydroxy-N-(3-methylbicyclo[1.1.1]pentan-1-yl)-1-(2-morpholinoethyl)-2-oxo-1,2-dihydro-1,8-naphthyridine-3-carboxamide] was run?
Answer: 100 to 999 nM

Question: What about the IC50 [2] of the same compound?
Answer: 100 to 999 nM

Question: CC(C)(CO)NC(=O)c1c(O)c2cc(-c3ccc(F)cc3)cnc2n(CCN2CCOCC2)c1=O [Compound 117, 6-(4-fluorophenyl)-4-hydroxy-N-(1-hydroxy-2-methylpropan-2-yl)-1-(2-morpholinoethyl)-2-oxo-1,2-dihydro-1,8-naphthyridine-3-carboxamide] was tested. Which IC50 [1] did it give?
Answer: 100 to 999 nM

Question: What about the IC50 [2, 6] of the same compound?
Answer: > 1000 nM

Question: What does the source list for O=C(NC12CC(C1)C2)c1c(O)c2nccnc2n(Cc2ccc(F)cc2)c1=O [Compound 147, N-(bicyclo[1.1.1]pentan-1-yl)-5-(4-fluorobenzyl)-8-hydroxy-6-oxo-5,6-dihydropyrido[2,3-b]pyrazine-7-carboxamide]?
Answer: IC50 [1, 5]: > 1000 nM; IC50 [2, 6]: > 1000 nM

Question: Which IC50 [1, 5] does the source give for CC(C)(NC(=O)c1c(O)c2cc(-c3ccc(F)cc3)cnc2n(CCN2CCOCC2)c1=O)C(=O)O [Compound 120, 2-(6-(4-fluorophenyl)-4-hydroxy-1-(2-morpholinoethyl)-2-oxo-1,2-dihydro-1,8-naphthyridine-3-carboxamido)-2-methylpropanoic acid] here?
Answer: > 1000 nM

Question: What about the IC50 [2, 6] of the same compound?
Answer: > 1000 nM

Question: Which IC50 [1, 5] does the source give for O=C(NC12CC(C1)C2)c1c(O)c2nccnc2n(CCN2CCOCC2)c1=O [Compound 146, N-(bicyclo[1.1.1]pentan-1-yl)-8-hydroxy-5-(2-morpholinoethyl)-6-oxo-5,6-dihydropyrido[2,3-b]pyrazine-7-carboxamide] here?
Answer: > 1000 nM

Question: What about the IC50 [2, 6] of the same compound?
Answer: > 1000 nM

Question: O=C(NC1CC2(CCC2)C1)c1cc2cc(-c3ccc(F)cn3)cnc2n(CCN2CCOCC2)c1=O [Compound 37, 6-(5-fluoropyridin-2-yl)-1-(2-morpholinoethyl)-2-oxo-N-(spiro[3.3]heptan-2-yl)-1,2-dihydro-1,8-naphthyridine-3-carboxamide] was tested. Which IC50 [1, 3] did it give?
Answer: 0.6 nM

Question: And the IC50 [2, 4]?
Answer: 112 nM

Question: Which IC50 [1, 5] does the source give for CC(C)Oc1ccc(-c2cnc3c(c2)cc(C(=O)NC2CC4(CCC4)C2)c(=O)n3Cc2ccc(F)cc2)cc1 [Compound 66, 6-(4-isopropoxyphenyl)-1-(4-fluorobenzyl)-2-oxo-N-(spiro[3.3]heptan-2-yl)-1,2-dihydro-1,8-naphthyridine-3-carboxamide] here?
Answer: > 1000 nM

Question: What about the IC50 [2, 6] of the same compound?
Answer: > 1000 nM

Question: How did the IC50 [1] turn out when COc1ccc(-c2cnc3c(c2)c(C)c(C(=O)NC2CCC(C)CC2)c(=O)n3CCN2CCOCC2)cc1 (stereo not shown) [Compound 73, 6-(4-methoxyphenyl)-4-methyl-N-(4-methylcyclohexyl)-1-(2-morpholinoethyl)-2-oxo-1,2-dihydro-1,8-naphthyridine-3-carboxamide] was run?
Answer: 100 to 999 nM

Question: And the IC50 [2, 6]?
Answer: > 1000 nM

Question: Which IC50 [1, 3] does the source give for COc1ccc(-c2cnc3c(c2)cc(C(=O)NC2CCC4(CC2)CC4)c(=O)n3CCN2CCOCC2)cc1 [Compound 28, 6-(4-methoxyphenyl)-1-(2-morpholinoethyl)-2-oxo-N-(spiro[2.5]octan-6-yl)-1,2-dihydro-1,8-naphthyridine-3-carboxamide] here?
Answer: 0.7 nM

Question: What about the IC50 [2, 4] of the same compound?
Answer: > 10000 nM

Question: CC(C)(C)NC(=O)c1c(O)c2cc(-c3ccc(F)cc3)cnc2n(CCN2CCOCC2)c1=O [Compound 118, N-(tert-butyl)-6-(4-fluorophenyl)-4-hydroxy-1-(2-morpholinoethyl)-2-oxo-1,2-dihydro-1,8-naphthyridine-3-carboxamide] was tested. Which IC50 [1] did it give?
Answer: 100 to 999 nM

Question: And the IC50 [2, 6]?
Answer: > 1000 nM

Question: How did the IC50 [1, 5] turn out when CC1(C)CC(NC(=O)c2c(O)c3cc(-c4ccc(F)cc4)cnc3n(CCN3CCOCC3)c2=O)C1 [Compound 111, N-(3,3-dimethylcyclobutyl)-6-(4-fluorophenyl)-4-hydroxy-1-(2-morpholinoethyl)-2-oxo-1,2-dihydro-1,8-naphthyridine-3-carboxamide] was run?
Answer: < 100 nM

Question: And the IC50 [2]?
Answer: 100 to 999 nM

Question: What does the source list for O=C(NC1CC2(CCC2)C1)c1c(O)c2cc(-c3ccc(OC(F)F)cn3)cnc2n(CCN2CCOCC2)c1=O [Compound 25, 6-(5-(difluoromethoxy)pyridin-2-yl)-4-hydroxy-1-(2-morpholinoethyl)-2-oxo-N-(spiro[3.3]heptan-2-yl)-1,2-dihydro-1,8-naphthyridine-3-carboxamide]?
Answer: IC50 [1, 5]: > 1000 nM; IC50 [2, 6]: > 1000 nM

Question: Which IC50 [1, 3] does the source give for O=C(NC1CC2(CCC2)C1)c1cc2cc(Br)cnc2n(Cc2ccc(F)cc2)c1=O [Compound 81, 6-bromo-1-(4-fluorobenzyl)-2-oxo-N-(spiro[3.3]heptan-2-yl)-1,2-dihydro-1,8-naphthyridine-3-carboxamide] here?
Answer: 5 nM

Question: And the IC50 [2, 4]?
Answer: > 10000 nM

Question: With COc1ccc(-c2cnc3c(c2)c(C)c(C(=O)NC(C)c2ccc(F)cc2)c(=O)n3CCN2CCOCC2)cc1 (stereo not shown) [Compound 75, N-(1-(4-fluorophenyl)ethyl)-6-(4-methoxyphenyl)-4-methyl-1-(2-morpholinoethyl)-2-oxo-1,2-dihydro-1,8-naphthyridine-3-carboxamide] as the compound, how does the IC50 [1, 5] read?
Answer: > 1000 nM

Question: What about the IC50 [2, 6] of the same compound?
Answer: > 1000 nM

Question: For COc1ccc(-c2cnc3c(c2)c(C)c(C(=O)NC2CC4(CCC4)C2)c(=O)n3CCN2CCOCC2)cc1 [Compound 74, 6-(4-methoxyphenyl)-4-methyl-1-(2-morpholinoethyl)-2-oxo-N-(spiro[3.3]heptan-2-yl)-1,2-dihydro-1,8-naphthyridine-3-carboxamide], which IC50 [1, 5] is on record?
Answer: > 1000 nM

Question: What about the IC50 [2, 6] of the same compound?
Answer: > 1000 nM

Question: With O=C(NC12CC(C1)C2)c1c(O)c2cccnc2n(CCN2CCOCC2)c1=O [Compound 136, N-(bicyclo[1.1.1]pentan-1-yl)-4-hydroxy-1-(2-morpholinoethyl)-2-oxo-1,2-dihydro-1,8-naphthyridine-3-carboxamide] as the compound, how does the IC50 [1, 5] read?
Answer: > 1000 nM

Question: And the IC50 [2, 6]?
Answer: > 1000 nM

Question: What does the source list for O=C(NC12CC(C1)C2)c1c(O)c2cc(-c3ccc(F)cn3)cnc2n(CCN2CCOCC2)c1=O [Compound 122, N-(bicyclo[1.1.1]pentan-1-yl)-6-(5-fluoropyridin-2-yl)-4-hydroxy-1-(2-morpholinoethyl)-2-oxo-1,2-dihydro-1,8-naphthyridine-3-carboxamide]?
Answer: IC50 [1]: 100 to 999 nM; IC50 [2, 6]: > 1000 nM

Question: Which IC50 [1, 5] does the source give for O=C(NC1CCCCC1)c1c(O)c2cc(-c3ccc(F)cc3)cnc2n(CCN2CCOCC2)c1=O [Compound 153, N-cyclohexyl-6-(4-fluorophenyl)-4-hydroxy-1-(2-morpholinoethyl)-2-oxo-1,2-dihydro-1,8-naphthyridine-3-carboxamide] here?
Answer: < 100 nM

Question: And the IC50 [2, 6]?
Answer: > 1000 nM

Question: Which results are given for C[C@H]1CC[C@@H](NC(=O)c2c(O)c3cc(-c4ccc(OC(F)F)cc4)ccc3n(CCN3CCOCC3)c2=O)CC1 [Compound 158, 6-(4-(difluoromethoxy)phenyl)-4-hydroxy-N-((1s,4S)-4-methylcyclohexyl)-1-(2-morpholinoethyl)-2-oxo-1,2-dihydroquinoline-3-carboxamide]?
Answer: IC50 [1, 5]: < 100 nM; IC50 [2, 6]: > 1000 nM
